The values that follow come from patent US20180256623A1, “COMPOSITIONS AND METHOD FOR REGULATING ADIPOSE TISSUE LIPOLYSIS, INSULIN-RESISTANCE, AND HYPERGLYCEMIA” (University of Virginia Patent Foundation, priority 2015, published 2018).

One assay concerns STZ mice. As to the kind of experiment: Hemorrhage and resuscitation protocol with Pseudomonas aeruginosa respiratory infection in STZ mice. The class given is in vivo. To be noted: in response to Atglistatin treatment. From the text: How preventing hyperglycemia can aid recovery and improve survival will be investigated. STZ mice will be subjected to hemorrhage protocol described above, but then resuscitated by fluid replacement to perform a survival surgery. The metabolic status will be followed for up to three days and indices of wound repair and susceptibility to postoperative pneumonia was monitored (FIG. 1). Control and T1DM mice, treated with Atglistatin to inhibit lipolysis or vehicle, will be subjected to the hemorrhage and resuscitation protocol. The ability of Atglistatin to improve survival under baseline conditions, as well as improve wound healing and recovery, will be determined. In addition, it will be determined whether attenuating postoperative hyperglycemia via Atglistatin administration improves survival from postoperative pseudomonal pneumonia and/or improve indices of pneumonia. […] Animals will be monitored for several hours after surgery taking hourly blood glucose measurements. […] Lung injury will be assessed by albumin ELISA in the bronchoalveolar lavage (BAL) fluid. Bacterial counts will be performed in the lung and blood, flow cytometric analysis of BAL cells will be done to assess for leukocyte infiltration and function, and BAL fluid as well as serum will be analyzed for inflammatory cytokine release. […]

A further assay addresses T1, monoglyceride lipase (Homo sapiens, UniProt Q99685).
T1 sequence (Q99685 1-303): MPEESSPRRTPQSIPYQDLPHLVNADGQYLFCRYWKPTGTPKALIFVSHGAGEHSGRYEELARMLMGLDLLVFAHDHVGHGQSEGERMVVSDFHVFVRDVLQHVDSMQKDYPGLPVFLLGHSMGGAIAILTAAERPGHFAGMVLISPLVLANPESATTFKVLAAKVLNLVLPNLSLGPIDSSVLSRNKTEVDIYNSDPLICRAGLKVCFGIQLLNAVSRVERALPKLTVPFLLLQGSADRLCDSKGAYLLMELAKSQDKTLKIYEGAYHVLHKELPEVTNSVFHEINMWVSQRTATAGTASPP
Conditions: cited from earlier work.

For another assay, the target named is T2, pancreatic lipase (Homo sapiens, UniProt P16233).
T2 sequence (P16233 17-465): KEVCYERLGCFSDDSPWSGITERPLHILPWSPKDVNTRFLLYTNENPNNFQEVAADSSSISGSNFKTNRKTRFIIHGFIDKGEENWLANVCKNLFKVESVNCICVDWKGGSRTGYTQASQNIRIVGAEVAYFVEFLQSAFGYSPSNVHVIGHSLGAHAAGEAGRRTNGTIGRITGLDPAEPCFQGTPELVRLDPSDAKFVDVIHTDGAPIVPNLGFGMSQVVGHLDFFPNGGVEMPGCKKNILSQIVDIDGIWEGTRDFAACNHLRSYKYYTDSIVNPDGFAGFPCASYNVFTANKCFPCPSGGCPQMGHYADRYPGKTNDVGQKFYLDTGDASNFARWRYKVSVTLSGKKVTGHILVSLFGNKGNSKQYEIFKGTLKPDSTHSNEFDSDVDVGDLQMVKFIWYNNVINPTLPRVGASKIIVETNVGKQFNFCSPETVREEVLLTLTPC
To be noted: cited from earlier work.

For the next assay, the target named is T3, PNPLA6 (Homo sapiens, UniProt Q8IY17).
T3 sequence (Q8IY17 1-1375): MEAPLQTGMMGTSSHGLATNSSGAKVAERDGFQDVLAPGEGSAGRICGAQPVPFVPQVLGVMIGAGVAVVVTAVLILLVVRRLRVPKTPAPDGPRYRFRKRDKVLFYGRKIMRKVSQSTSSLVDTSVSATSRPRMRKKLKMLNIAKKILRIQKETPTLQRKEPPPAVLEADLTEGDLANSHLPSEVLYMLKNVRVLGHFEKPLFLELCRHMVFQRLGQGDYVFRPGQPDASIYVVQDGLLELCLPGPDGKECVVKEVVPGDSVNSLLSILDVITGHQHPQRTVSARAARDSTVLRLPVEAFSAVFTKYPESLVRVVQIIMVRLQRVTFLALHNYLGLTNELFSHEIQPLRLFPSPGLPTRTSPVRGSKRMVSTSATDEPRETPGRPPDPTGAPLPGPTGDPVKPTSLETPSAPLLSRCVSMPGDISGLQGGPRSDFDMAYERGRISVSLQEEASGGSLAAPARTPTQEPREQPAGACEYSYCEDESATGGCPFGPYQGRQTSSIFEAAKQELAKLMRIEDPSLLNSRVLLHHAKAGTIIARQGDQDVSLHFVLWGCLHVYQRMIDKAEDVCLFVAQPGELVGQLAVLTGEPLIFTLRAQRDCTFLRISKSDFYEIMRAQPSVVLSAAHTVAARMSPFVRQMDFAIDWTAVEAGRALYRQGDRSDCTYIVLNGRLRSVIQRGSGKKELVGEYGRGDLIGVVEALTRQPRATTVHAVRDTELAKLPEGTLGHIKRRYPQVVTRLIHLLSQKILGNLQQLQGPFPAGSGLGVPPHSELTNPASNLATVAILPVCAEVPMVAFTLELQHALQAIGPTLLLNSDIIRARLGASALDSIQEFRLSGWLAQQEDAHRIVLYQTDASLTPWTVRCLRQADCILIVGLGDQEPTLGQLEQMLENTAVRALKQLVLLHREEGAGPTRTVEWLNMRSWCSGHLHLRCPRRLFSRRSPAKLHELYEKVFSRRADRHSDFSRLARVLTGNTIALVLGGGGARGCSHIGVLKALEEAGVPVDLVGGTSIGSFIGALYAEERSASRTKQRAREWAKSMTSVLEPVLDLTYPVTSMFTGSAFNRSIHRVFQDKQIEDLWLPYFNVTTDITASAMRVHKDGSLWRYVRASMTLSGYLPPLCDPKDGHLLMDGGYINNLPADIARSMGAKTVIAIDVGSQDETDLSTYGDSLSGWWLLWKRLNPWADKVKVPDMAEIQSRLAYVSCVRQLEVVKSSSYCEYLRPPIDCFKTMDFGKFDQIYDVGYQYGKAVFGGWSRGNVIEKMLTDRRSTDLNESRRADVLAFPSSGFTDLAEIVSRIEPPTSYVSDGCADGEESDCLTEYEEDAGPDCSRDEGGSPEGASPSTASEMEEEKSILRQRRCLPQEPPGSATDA
Conditions: cited from earlier work.

The next assay deals with lipolysis by ATGL. Conditions: in vivo; cited from earlier work.

Consider `CN(C)C(=O)Nc1cccc(-c2ccc(N(C)C)cc2)c1` [Atglistatin, N′-[4′-(dimethylamino) [1,1′-biphenyl]-3-yl]-N,N-dimethyl-urea], for which the immune cell function entry with STZ mice is “restored to levels comparable with normoglycemic mice”. For the same molecule, at monoglyceride lipase, the “inhibition of monoglyceride lipase” value was “does not inhibit”. The “inhibition of pancreatic lipase” value on pancreatic lipase is “does not inhibit”. Besides, the “inhibition of PNPLA6” value on PNPLA6 was “does not inhibit”. In addition, in the assay with lipolysis by ATGL, the “lipolysis by ATGL (fatty acid mobilization)” value is “blocks lipolysis”.
